Literature values, collected in article PMC6640857 (Tetrahedron, 2019).

Settings: relative to vancomycin; cited from earlier work

chlorobiphenylmethyl (CBP-)vancomycin [compound 2]
enhancement of antimicrobial potency by the CBP modification: ≤ 100 fold
